Patent US9376433B2, “(AZA-)isoquinolinone derivatives” (MERCK PATENT GMBH, priority 2012, dated 2016)

Assays:
PARP-1 = target: T1, PARP-1 (Homo sapiens, UniProt P09874); assay: PARP-1 autoparsylation assay (HTRF); type: biochemical; conditions: His-tagged Parp-1, human recombinant
T1 construct: purchased Enzo Life Sciences GmbH, Lorrach, Germany
Text: Description of the PARP1 Assay
Biochemical Activity Testing of PARP-1: Autoparsylation Assay
The autoparsylation assay is run in two steps: the enzymatic reaction in which His-tagged Parp-1 transfers biotinylated ADP-ribose/ADP-ribose to itself from biotinylated NAD/NAD as co-substrate and the detection reaction where a time resolved FRET between cryptate labelled anti-His antibody bound to the His tag of the enzyme and Xlent® labelled-streptavidin bound the biotin-parsylation residue is analysed. The autoparsylation activity is detectable directly via the increase in HTRF signal.
The autoparsylation assay is performed as 384-well HTRF® (Cisbio, Codolet, France) assay format in Greiner low volume nb 384-well microtiter plates. 35 nM His-tagged Parp-1 (human, recombinant, Enzo Life Sciences GmbH, Lorrach, Germany) and a mixture of 125 nM bio-NAD (Biolog, Life science Inst., Bremen, Germany) and 800 nM NAD as co-substrate are incubated in a total volume of 6 μl (100 mM Tris/HCl, 4 mM Mg-chloride, 0.01% IGEPAL® CA630, 1 mM DTT , 0.5% DMSO, pH 8, 13 ng/μl activated DNA (BPS Bioscience, San Diego, US)) in the absence or presence of the test compound (10 dilution concentrations) for 150 min at 23° C. The reaction is stopped by the addition of 4 μl of the Stop/detection solution (70 nM SA-Xlent® (Cisbio, Codolet, France), 2.5 nM Anti-His-K® (Eu-labelled anti-His, Cisbio, Codolet, France) in 50 mM HEPES, 400 mM KF, 0.1% BSA, 20 mM EDTA, pH 7.0). After 1 h incubation at room temperature the HTRF iss measured with an Envision multimode reader (Perkin Elmer LAS Germany GmbH) at excitation wavelength 340 nm (laser mode) and emission wavelengths 615 nm and 665 nm. The ratio of the emission signals is determined. The full value used is the inhibitor-free reaction. The pharmacological zero value used is Olaparib (LClabs, Woburn, US) in a final concentration of 1 μM. The inhibitory values (IC50) are determined using either the program Symyx Assay Explorer® or Condosseo® from GeneData.

Tankyrase-1 = target: T2, Tankyrase-1 (Homo sapiens, UniProt O95271); assay: Tankyrase 1 autoparsylation assay (HTRF enzyme assay); type: biochemical; conditions: GST-tagged Tankyrase-1 (1023-1327 aa)
T2 construct: GST-tagged Tankyrase-1 (1023-1327 aa)
T2 sequence (O95271 1023-1327): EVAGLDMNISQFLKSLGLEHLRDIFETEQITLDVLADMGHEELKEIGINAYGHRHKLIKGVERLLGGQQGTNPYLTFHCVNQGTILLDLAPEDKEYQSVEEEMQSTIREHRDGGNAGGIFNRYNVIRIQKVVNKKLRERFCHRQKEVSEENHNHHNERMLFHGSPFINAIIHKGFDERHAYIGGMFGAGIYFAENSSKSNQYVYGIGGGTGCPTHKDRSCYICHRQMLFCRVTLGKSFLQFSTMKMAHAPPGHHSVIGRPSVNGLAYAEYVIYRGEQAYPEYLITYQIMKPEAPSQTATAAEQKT
Procedure: (§1) Biochemical activity testing of Tankyrase 1 and 2: Autoparsylation assay
(§2) The autoparsylation assay is run in two steps: the enzymatic reaction in which GST-tagged Tankyrase-1, resp Tankyrase-2 transferred biotinylated ADP-ribose to itself from biotinylated NAD as co-substrate and the detection reaction where a time resolved FRET between cryptate labelled anti-GST bound to the GST tag of the enzyme and Xlent® labelled-streptavidin bound the biotin-parsylation residue is analysed. The autoparsylation activity was detectable directly via the increase in HTRF signal.
(§3) The autoparsylation assay is performed as 384-well HTRF® (Cisbio, Codolet, France) assay format in Greiner low volume nb 384-well microtiter plates and is used for high throughput screen. 250 nM GST-tagged Tankyrase-1 (1023-1327 aa), respectively about 250 nM GST-tagged Tankyrase-2 (873-1166 aa) and 5 μM bio-NAD (Biolog, Life science Inst., Bremen, Germany) as co-substrate are incubated in a total volume of 5 μl (50 mM HEPES, 4 mM Mg-chloride, 0.05% Pluronic F-68, 1.4 mM DTT, 0.5% DMSO, pH 7.7) in the absence or presence of the test compound (10 dilution concentrations) for 90 min at 30° C. The reaction is stopped by the addition of 1 μl 50 mM EDTA solution. 2 μl of the detection solution (1.6 μM SA-Xlent® (Cisbio, Codolet, France), 7.4 nM Anti-GST-K® (Eu-labelled anti-GST, Cisbio, Codolet, France) in 50 mM HEPES, 800 mM KF, 0.1% BSA, 20 mM EDTA, 0.1% CHAPS, pH 7.0) are added. After 1 h incubation at room temperature the HTRF is measured with an Envision multimode reader (Perkin Elmer LAS Germany GmbH) at excitation wavelength 340 nm (laser mode) and emission wavelengths 615 nm and 665 nm. The ratio of the emission signals is determined. The full value used is the inhibitor-free reaction. The pharmacological zero value used is XAV-939 (Tocris) in a final concentration of 5 μM. The inhibitory values (IC50) are determined using either the program Symyx Assay Explorer® or Condosseo® from GeneData.

Tankyrase-2 = target: T3, Tankyrase-2 (Homo sapiens, UniProt Q9H2K2); assay: Tankyrase 2 autoparsylation assay (HTRF enzyme assay); type: biochemical; conditions: GST-tagged Tankyrase-2 (873-1166 aa)
T3 construct: GST-tagged Tankyrase-2 (873-1166 aa)
T3 sequence (Q9H2K2 873-1166): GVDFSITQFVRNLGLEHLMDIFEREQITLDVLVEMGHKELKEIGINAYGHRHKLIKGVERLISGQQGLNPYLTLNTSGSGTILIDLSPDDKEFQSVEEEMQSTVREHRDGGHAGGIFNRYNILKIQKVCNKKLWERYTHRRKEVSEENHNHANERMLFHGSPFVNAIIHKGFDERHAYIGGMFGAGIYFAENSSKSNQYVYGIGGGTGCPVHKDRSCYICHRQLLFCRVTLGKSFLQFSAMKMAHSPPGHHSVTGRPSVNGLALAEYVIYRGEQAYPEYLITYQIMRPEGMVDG
Procedure: as §1, §2, §3

tankyrase 1/2 = assay: Cellular inhibition of tankyrase: increase of Axin2 level in DLD1 cells (Luminex); type: cell-based; conditions: DLD1 colon carcinoma cells, 24 hours, read-out: EC50 tankyrase 1/2 (cell assay)
Procedure: Measurement of Cellular Inhibition of Tankyrase
Since Tankyrases have been described to modulate cellular level of Axin2 (Huang et al., 2009; Nature) the increase of Axin2 level is used as read-out for determination of cellular inhibition of Tankyrases in a Luminex based assay.
Cells of the colon carcinoma cell line DLD1 are plated in 96 well plates with 1.5×10^4 cells per well. Next day, cells are treated with a serial dilution of test compound in seven steps as triplicates with a final DMSO concentration of 0.3%. After 24 hours, cells are lysed in lysis buffer (20 mM Tris/HCl pH 8.0, 150 mM NaCl, 1% NP40, 10% Glycerol) and lysates are cleared by centrifugation through a 96 well filter plate (0.65 μm). Axin2 protein is isolated from cell lysates by incubation with a monoclonal anti-Axin2 antibody (R&D Systems #MAB6078) that is bound to fluorescent carboxybeads. Then, bound Axin2 is specifically detected with a polyclonal anti-Axin2 antibody (Cell Signaling #2151) and an appropriate PE-fluorescent secondary antibody. The amount of isolated Axin2 protein is determined in a Luminex^200 machine (Luminex Corporation) according to the manufacturer's instruction by counting 100 events per well. Inhibition of Tankyrase by test compounds results in higher levels of Axin2 which directly correlates with an increase of detectable fluorescence. As controls cells are treated with solvent alone (neutral control) and with a Tankyrase reference inhibitor IWR-2 (3E-06 M) which refers as control for maximum increase of Axin2. For analysis, the obtained data are normalized against the untreated solvent control and fitted for determination of the EC50 values using the Assay Explorer software (Accelrys).

T1 sequence (P09874 whole entry): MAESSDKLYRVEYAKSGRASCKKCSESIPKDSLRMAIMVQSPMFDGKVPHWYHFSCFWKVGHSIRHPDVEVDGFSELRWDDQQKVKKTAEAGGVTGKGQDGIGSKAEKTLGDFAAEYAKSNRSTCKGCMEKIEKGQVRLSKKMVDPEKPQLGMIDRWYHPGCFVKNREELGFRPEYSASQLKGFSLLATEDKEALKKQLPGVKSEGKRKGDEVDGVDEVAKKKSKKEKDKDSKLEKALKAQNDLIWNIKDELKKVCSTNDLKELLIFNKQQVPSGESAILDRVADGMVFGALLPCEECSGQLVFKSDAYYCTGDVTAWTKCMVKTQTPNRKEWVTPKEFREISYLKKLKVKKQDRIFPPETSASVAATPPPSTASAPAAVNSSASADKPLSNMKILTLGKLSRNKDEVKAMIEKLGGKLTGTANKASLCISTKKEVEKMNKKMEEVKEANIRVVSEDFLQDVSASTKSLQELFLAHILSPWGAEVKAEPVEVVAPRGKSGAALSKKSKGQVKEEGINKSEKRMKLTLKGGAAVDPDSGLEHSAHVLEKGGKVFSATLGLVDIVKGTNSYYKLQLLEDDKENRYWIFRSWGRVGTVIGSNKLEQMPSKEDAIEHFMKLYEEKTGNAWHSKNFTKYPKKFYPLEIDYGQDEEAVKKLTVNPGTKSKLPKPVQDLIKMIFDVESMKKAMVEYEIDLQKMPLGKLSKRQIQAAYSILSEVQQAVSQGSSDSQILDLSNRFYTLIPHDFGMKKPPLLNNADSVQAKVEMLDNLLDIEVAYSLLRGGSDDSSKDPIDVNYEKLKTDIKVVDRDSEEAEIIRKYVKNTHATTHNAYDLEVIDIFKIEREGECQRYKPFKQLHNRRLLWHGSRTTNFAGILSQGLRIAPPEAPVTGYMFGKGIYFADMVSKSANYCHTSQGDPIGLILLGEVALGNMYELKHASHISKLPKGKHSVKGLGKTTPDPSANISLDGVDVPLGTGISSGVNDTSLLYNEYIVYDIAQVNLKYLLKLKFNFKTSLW

SMILES	IC50 (PARP-1)	IC50 (Tankyrase-1)	IC50 (Tankyrase-2)	EC50 (tankyrase 1/2)
CC(C)(O)c1ccc(-c2cc3ccccc3c(=O)[nH]2)cc1 [Compound A3, 3-[4-(1-hydroxy-1-methyl-ethyl)-phenyl]-2H-isoquinolin-1-one]	300 to 3000 nM	< 300 nM	< 300 nM	< 300 nM
Cn1cc(-c2ccc(-c3cc4ccncc4c(=O)[nH]3)cc2)cn1 [Compound A14, 3-[4-(1-Methyl-1H-pyrazol-4-yl)-phenyl]-2H-[2,7]naphthyridin-1-one]	3000 to 50000 nM	< 300 nM	300 to 3000 nM	300 to 3000 nM
Cc1ccc(-c2cc3ccc(F)cc3c(=O)[nH]2)cc1 [Compound A9, 7-fluoro-3-p-tolyl-2H-isoquinolin-1-one]	< 300 nM	< 300 nM	< 300 nM	300 to 3000 nM
C=C(C)c1ccc(-c2cc3ccc(F)cc3c(=O)[nH]2)cc1 [Compound A17, 7-fluoro-3-(4-isopropenyl-phenyl)-2H-isoquinolin-1-one]	300 to 3000 nM	< 300 nM	300 to 3000 nM	< 300 nM
CC(C)(N)c1ccc(-c2cc3ccc(F)cc3c(=O)[nH]2)cc1 [Compound A20, 3-[4-(1-amino-1-methyl-ethyl)phenyl]-7-fluoro-2H-isoquinolin-1-one]	< 300 nM	< 300 nM	< 300 nM	300 to 3000 nM
CC(C)(O)c1ccc(-c2cc3ccncc3c(=O)[nH]2)cc1 [Compound A24, 3-[4-(1-hydroxy-1-methyl-ethyl)phenyl]-2H-2,7-naphthyridin-1-one]	3000 to 50000 nM	< 300 nM	< 300 nM	300 to 3000 nM
CC(C)(O)c1ccc(-c2cc3cc(F)ccc3c(=O)[nH]2)cc1 [Compound A5, 6-fluoro-3-[4-(1-hydroxy-1-methyl-ethyl)-phenyl]-2H-isoquinolin-1-one]	300 to 3000 nM	< 300 nM	300 to 3000 nM	300 to 3000 nM
Cc1ccc(-c2cc3c(F)cccc3c(=O)[nH]2)cc1 [Compound A12, 5-fluoro-3-p-tolyl-2H-isoquinolin-1-one]	300 to 3000 nM	< 300 nM	300 to 3000 nM	300 to 3000 nM
CC(C)(O)c1ccc(-c2cc3cnccc3c(=O)[nH]2)cc1 [Compound A23, 3-[4-(1-hydroxy-1-methyl-ethyl)phenyl]-2H-2,6-naphthyridin-1-one]	3000 to 50000 nM	< 300 nM	< 300 nM	300 to 3000 nM
CC(C)(O)c1ccc(-c2cc3c(F)cccc3c(=O)[nH]2)cc1 [Compound A28, 5-fluoro-3-[4-(1-hydroxy-1-methyl-ethyl)phenyl]-2H-isoquinolin-1-one]	300 to 3000 nM	< 300 nM	< 300 nM	< 300 nM
CC(C)(OCCO)c1ccc(-c2cc3ccc(F)cc3c(=O)[nH]2)cc1 [Compound A16, 7-fluoro-3-{4-[1-(2-hydroxy-ethoxy)-1-methyl-ethyl]-phenyl}-2H-isoquinolin-1-one]	300 to 3000 nM	< 300 nM	< 300 nM	< 300 nM
Cn1cc(-c2ccc(-c3cc4ccc(F)cc4c(=O)[nH]3)cc2)cn1 [Compound A18, 7-fluoro-3-[4-(1-methyl-1H-pyrazol-4-yl)-phenyl]-2H-isoquinolin-1-one]	300 to 3000 nM	< 300 nM	300 to 3000 nM	< 300 nM
Cc1ccc(-c2cc3c(C)cccc3c(=O)[nH]2)cc1 [Compound A29, 5-methyl-3-(p-tolyl)-2H-isoquinolin-1-one]	< 300 nM	< 300 nM	300 to 3000 nM	300 to 3000 nM
CC(C)(O)c1ccc(-c2cc3c(F)cc(F)cc3c(=O)[nH]2)cc1 [Compound A33, 5,7-difluoro-3-[4-(1-hydroxy-1-methyl-ethyl)-phenyl]-2H-isoquinolin-1-one]	< 300 nM	< 300 nM	300 to 3000 nM	< 300 nM
CC(C)(O)c1ccc(-c2cc3cccc(F)c3c(=O)[nH]2)cc1 [Compound A27, 8-fluoro-3-[4-(1-hydroxy-1-methyl-ethyl)phenyl]-2H-isoquinolin-1-one]	300 to 3000 nM	< 300 nM	< 300 nM	< 300 nM
CC(C)(O)c1ccc(-c2cc3ccc(F)cc3c(=O)[nH]2)cc1 [Compound A6, 7-fluoro-3-[4-(1-hydroxy-1-methyl-ethyl)-phenyl]-2H-isoquinolin-1-one]	300 to 3000 nM	< 300 nM	< 300 nM	< 300 nM
COC(C)(C)c1ccc(-c2cc3ccccc3c(=O)[nH]2)cc1 [Compound A15, 3-[4-(1-methoxy-1-methyl-ethyl)-phenyl]-2H-isoquinolin-1-one]	300 to 3000 nM	< 300 nM	300 to 3000 nM	< 300 nM
Cc1ccc(-c2cc3cccc(F)c3c(=O)[nH]2)cc1 [Compound A11, 8-fluoro-3-p-tolyl-2H-isoquinolin-1-one]	300 to 3000 nM	< 300 nM	< 300 nM	300 to 3000 nM
Cc1ccc(-c2cc3cc(F)ccc3c(=O)[nH]2)cc1 [Compound A10, 6-fluoro-3-p-tolyl-2H-isoquinolin-1-one]	3000 to 50000 nM	300 to 3000 nM	300 to 3000 nM	3000 to 50000 nM
